Measured values published in article PMC9256669, “Monomethyl auristatin antibody and peptide drug conjugates for trimodal cancer chemo-radio-immunotherapy” (Nature Communications, 2022).
Values joined by “and” are separate entries in the source; they are usually repeats but may differ in a detail not shown here. Identical values can stand only once. Non-standard residues stand in square brackets, D forms with d. Residues, ends and D or L forms follow the SMILES beside them. *: point of attachment. Dolaproine = CO[C@@H]([C@@H]1CCCN1)[C@@H](C)C(=O)O; Dil = CC[C@H](C)[C@H](NC)[C@@H](CC(=O)O)OC; X1 = C[C@@H](N*)[C@@H](O)c1ccccc1; NMeV = CN[C@H](C(=O)O)C(C)C

Key:
B16 cells = experiment: Cell cycle analysis; format: cell-based, murine; conditions: for G2/M fraction: Figure 3c, single replicates
Protocol: Cells were MMAE treated for 24 h, fixed in 70% ethanol, stained with FxCyclePI/RNase solution (Life Technologies), and then analyzed by FACS using FlowJo software.

B16 tumors [1] = tested on: B16 tumors; set-up: species or system C57BL/6 mice; conditions: mouse, in vivo
Protocol: At harvest, tumors were isolated, minced, and re-suspended in FBS-free DMEM media supplemented with components of MACs tumor dissociation kit. Tissues were incubated for 15 min at 37 °C and mechanically digested using the gentle MACs Octo dissociator. Tissue suspensions were washed with fresh media and passed through a 100-µm strainer. Samples were split in half for immediate staining or stimulated with the Biolegend Cell Activation Cocktail (with Brefeldin A) for 3 h. Samples were washed with PBS and immediately processed for live/dead cell discrimination using BD LIVE/DEAD™ Fixable Blue Dead Cell Stain Kit. Cells were washed and stained for surface markers for 30 min at 4 °C. Intracellular staining was performed using the eBioscience FOXP3/Transcription Factor Buffer Set from Invitrogen and stained with intracellular antibodies. […] All antibodies were validated by the supplier. All flow cytometry data acquisition was done using BD LSRFortessa and analyzed using FlowJo software. […]
Representative flow cytometry plots to gate immune cells quantitated in Fig. 4a, b, 4d &
Supplementary Fig. 10b, c. b) Quantification of tumor immune cell identified by flow cytometry on […]
(Clone:GB11). In addition, RNA levelsof tumor granzyme-B was analyzed by qPCR. […]

B16 tumors [2] = experiment: NanoString nCounter PanCancer Mouse Immune Profiling of tumors; format: in vivo, C57BL/6 mice; conditions: ACPP-MMAE alone vs vehicle
Protocol: RNA was isolated from cells or tumor tissues and comprehensive immune profiling was analyzed using the NanoString PanCancer IO 360 Panel and NanoString nCounter PanCancer Mouse Immune Profiling gene expression platforms. Gene set analysis with calculated global significance scores and directed significance scores were calculated for treated cells. The Advanced Analysis module of the nSolver software was used to analyze genes associated with listed immune cells in tumors and given a Z-score (n = 3 mice per group). Expression levels of GZMB were analyzed using real-time quantitative PCR. Reverse transcription was performed with the iScript cDNA synthesis kit (Biorad), using aliquots of total RNA extracted with RNeasy Plus Mini Kit (Qiagen). Gene-specific primers were GZMB-F […] and GZMB-R […]. Real-time PCR reactions were performed using the CFX Connect Real-Time PCR System (Biorad) and the amplifications were done using the iTaq Universal SYBR Green Supermix (Biorad). qPCR data were analyzed using the Bio-Rad CFX Maestro software.
Supplementary Data 1: Complete NanoString expression data of Figure 1b. Untreated control (n=2) and 5 nM MMAE treated (n=3) B16 cells were harvested at 72 hrs. RNA was collected and analyzed using NanoString PanCancer IO 360 Panel. […]
were harvested. RNA was collected and analyzed using NanoString nCounter PanCancer Mouse Immune Profiling panel. […]

[3] = Tumor drug measurement (MMAE by LC-MS/MS) after ACPP-MMAE; format: in vivo, mouse; conditions: LL/2 and B16 tumors, 10 nmoles ACPP-MMAE i.v.
Protocol: (§1) For CDX3379-MMAE drug measurements, 6-week-old female NOD SCID (University of California San Diego Animal Care Program) were injected orthotopically into the tongue with 150,000 CAL27 PIK3CA H1047R expressing cells in 20 µl of DMEM. After 10 days, mice were intravenously (i.v.) injected through the tail vein with 2.5 nmole of CDX3379-MMAE in 50 µl of PBS. […] Tumors were excised on days indicated in figure legends, weighed, and homogenized in 10 v/w of 2% acetic acid in 1:1 acetonitrile:water with a point sonicator (Fisher Scientific) using an amplitude range of 5–15% for 20 s on ice. Homogenates were centrifuged ([…], 10 min), supernatants collected for drug concentration measurements using LC–MS/MS. Drug concentration was determined by LC–MS/MS with Luna-2 C18 column and Agilent Trap XCT mass spectrometer. For MMAE tissue concentrations, integrated ion currents for m/z 682.4, 496.4 and m/z 686.4, 506.4 extracted from fragmented m/z 740.4 and 718.4, respectively, were combined. The total ion current was fit to a standard curve generated for each drug to quantitate tissue drug concentration.

[4] = Tumor drug measurement (MMAE by LC-MS/MS) after CDX3379-MMAE; format: in vivo, mouse; set-up: unit not given here; conditions: orthotopic CAL27 tongue xenografts (methods: CAL27 PIK3CA H1047R cells, NOD SCID), 2.5 nmoles CDX3379-MMAE i.v., tumors harvested 48 h, one value per tumor, vehicle 1.606, 2.873, a reviewer reads roughly 100 nM
Protocol: as §1

[5] = tested on: MOC1, MOC2 and LL/2 tumors; conditions: immune-competent mice, not in HER3 negative LL/2 tumors
Protocol: (§2) All animal work was done in compliance with the University of California San Diego Institutional Animal Use and Care Committee under protocol #S15290. Mice were housed in individually ventilated and micro-isolator cages supplied with acidified water and fed 5053 irradiated PicoLab Rodent Diet 20. Temperature for laboratory mice in housing was 18–23 °C with humidity 40–60%. Housing room is maintained on a 12-h light/dark cycle. […] For imaging, mice were anesthetized (1:1 mixture of 100 mg/ml of ketamine and 5 mg/ml of midazolam). Animals were imaged using a Maestro Small Animal Imager (CRI) with excitation filter of 607/36 and 633 nm long pass emission filter with dichroic filter tuned to 670 nm for Cy5 images only. Imaging was done both with skin on and after skin removal to decrease autofluorescence and scattering. Exposure time for Cy5 signal capture for tumor models was as follows: CAL27 for 800 ms, MOC1 for 200 ms and MOC2 for 1500 ms.
(§3) Source data are provided in Source Data file.

[6] = tested on: CAL27 and Detroit 562 tumor xenografts; conditions: immune-deficient mice with HER3 expressing human tumor xenografts
Protocol: as §2, §3

CC[C@H](C)[C@@H]([C@@H](CC(=O)N1CCC[C@H]1[C@H](OC)[C@@H](C)C(=O)N[C@H](C)[C@@H](O)c1ccccc1)OC)N(C)C(=O)[C@@H](NC(=O)[C@@H](NC)C(C)C)C(C)C [MMAE, monomethyl auristatin E] (H-[NMeV]V[Dil][Dolaproine]-X1)
G2/M fraction (B16 cells; MMAE 1 nM): 0.13 and 0.12 | G2/M fraction (B16 cells; MMAE 2 nM): 0.12 and 0.14 | G2/M fraction (B16 cells; MMAE 5 nM): 0.23 and 0.25 | G2/M fraction (B16 cells; MMAE 10 nM): 0.73 and 0.76 | cell cycle effect (B16 cells; MMAE-treated cells): arresting cells in the radiosensitive mitotic phase of the cell cycle

cyclo(RGD)fc-MC-HN-peg8-e9-oPLGC(Me)AG-r9-c-(MC-VC-PABC-MMAE)-CONH2 [ACPP-MMAE]
CD8 T cell granzyme B (B16 tumors [1]): increased CD8 T cell granzyme B at both the transcriptional and protein levels | Immune checkpoint markers: GZMB, RNA (B16 tumors [1]): 3.95 and 3.63 | tumor infiltration of immune cell types (NanoString) (B16 tumors [2]): minimal effects | release of conjugated drug warhead in tumors [3]: efficiently released its conjugated drug warhead equally in LL/2 and B16 tumors

CDX3379-MMAE: anti-HER3 antibody CDX3379 with 4 MMAE per antibody via MC-VC-PABC linker, labeled with Cy5
Tumor MMAE concentration [4]: 124.8 and 143.8 and 123.3 and 91.37 | localization of i.v. injected Cy5-labeled ADC [5]: localized to HER3 expressing murine syngeneic tumors | localization of i.v. injected Cy5-labeled ADC [6]: localized to tumor bearing hindlimbs
